Broadly, the IC50 is the concentration at which inhibition is half-maximal.

Experimental findings from US20260226493A1, “HERBICIDE RESISTANT PLANTS” (SYNGENTA CROP PROTECTION AG, priority 2023, published 2026) are described below.

Experiment [1] concerns D4585 (Arabidopsis thaliana BIO3-BIO1 P421L) containing tobacco plants. As to the kind of experiment: Visual herbicide damage score on transgenic tobacco D4585 (pCMP AtBioDA P421L). In kind it is in vivo. Particulars: 600 gai/ha; 21 DAT; one D4585 transgenic plant. An excerpt:
(§1) Populations of transgenic tobacco comprising 20-30 transgenic events per plant transformation constructs were generated as described in Example 1. These lines were clonally propagated and 1 clone per event was sprayed with 600 g ai/ha compound L or A+0.2% Genapol X080 with a spray volume of 200 L/Ha (“g ai/ha” refers to grams of active compound per hectare).
(§2) Herbicidal damage was visually assessed across the population and a herbicide damage score given at 7, 14 and 21 days. A score of 0 indicates no visible damage or stunting whereas a score of 100 indicates a complete death of the plant. 20 transgenic events (i.e. individual transgenic plants) from each GM tobacco line were transplanted to soil 1 week prior to spraying with BIO3-BIO1inhibiting compounds. WT tobacco was included as a control.
(§3) To determine if overexpression of variants detailed in Example 7 confer resistance to BIO3-BIO1 inhibiting compounds when expressed in plants, GM tobacco lines were produced using the methods in Example 1 and tested with BIO3-BIO1 inhibiting compounds.
(§4) Transgenic tobacco plants expressing the Arabidopsis thaliana BIO3-BIO1 variants C388D (SEQ ID NO:26), P421L(SEQ ID NO:41), F348C (SEQ ID NO:28), G700S (SEQ ID NO:39), W392S (SEQ ID NO:70) and the Zea mays BIO3-BIO1 variant C372D (SEQ ID NO:324). Populations of transgenic tobacco were sprayed and assessed as in Example 2

For experiment [2], the system named is D4596 (Arabidopsis thaliana BIO3-BIO1 F348C) containing tobacco plants. Description: Visual herbicide damage score on transgenic tobacco D4596 (pCMP AtBioDA F348C). The class given is in vivo. The settings on record: 600 gai/ha; 7 DAT; each table row is one D4596 transgenic plant.
Excerpt: as §1, §2, §3, §4

Experiment [3] has as its system Wildtype Samsun tobacco. Description: Visual herbicide damage score on wild-type tobacco plants after spraying. The settings on record: for percentage of damage: 600 gai/ha, one WT plant. In kind it is in vivo.
Excerpt: as §1
A score of 0 indicates no visible damage or stunting whereas a score of 100 indicates a complete death of the plant. 20 transgenic events (i.e. individual transgenic plants) from each GM tobacco line were transplanted to soil 1 week prior to spraying with BIO3-BIO1inhibiting compounds. WT tobacco was included as a control. […]

For experiment [4], the system named is D4597 (Arabidopsis thaliana BIO3-BIO1 G700S) containing tobacco plants. As to the kind of experiment: Visual herbicide damage score on transgenic tobacco D4597 (pCMP AtBioDA G700S). The class given is in vivo. Particulars: 600 gai/ha; 7 DAT; each table row is one D4597 transgenic plant.
Excerpt: as §1, §2, §3, §4

Experiment [5] concerns D4604 (Arabidopsis thaliana BIO3-BIO1 W392S) containing tobacco plants. As to the kind of experiment: Visual herbicide damage score on transgenic tobacco D4604 (pCMP AtBioDA W392S). In kind it is in vivo. The settings on record: 600 gai/ha, each table row is one D4604 transgenic plant.
Excerpt: as §1, §2, §3, §4

Experiment [6] has as its target T1, Arabidopsis thaliana BioDA variant enzymes (Arabidopsis thaliana, UniProt B0F481, C388T).
T1 construct: with the predicted N-terminal mitochondrial transit peptide removed; 6xHis-tag (N); thrombin cleavage site (N); made in house; host or cells: E. coli BL21 (DE3) bioA
As to the kind of experiment: biochemical. The procedure:
(§5) These plasmids were then expressed in E. coli BL21 (DE3) bioA with 50 μg/mL kanamycin and 25 μg/mL chloramphenicol selection. Overnight cultures grown at 37° C. were used to inoculate 8×500 mL AIM in shake flasks at a ratio of 1:100. Cultures were grown at 37° C., 200 rpm for 3.5 hours and then overnight at 20° C. Cells were harvested by centrifugation for 30 minutes at 10 000 g. Cells were stored at −80° C. until extraction. 30 g of cell pellet from was thawed in 120 mL of IMAC buffer A (20 mM HEPES pH7.5, 25 mM imidazole, 500 mM sodium chloride, 0.15 mM pyridoxal phosphate, 0.5 mM TCEP, 1× complete Protease Inhibitor Tablet (Roche)). The resuspension was passed through a cell disrupter at 18 000 PSI and centrifuged at 50 000 g for 25 minutes at 4° C. The His-tagged BIO3-BIO1 protein was purified from the extract supernatant on an AKTA avant chromatography system (Cytiva) using a HisTrap FF column and eluted in IMAC buffer B ((20 mM HEPES pH7.5, 500 mM imidazole, 500 mM sodium chloride, 0.15 mM pyridoxal phosphate, 0.5 mM TCEP) followed by SEC using a HiLoad 26/60 Superdex200 column in SEC buffer (25 mM HEPES pH7.5, 150 mM sodium chloride, 0.15 mM pyridoxal phosphate, 0.5 mM TCEP). Protein concentration was measured and calculated using the absorbance at 280 nm. Extracts were diluted 1 in 4 and 10 uL was analysed by SDS PAGE.
(§6) To measure BIO3-BIO1 mutant enzyme activity in the presence of herbicide, herbicides were incubated with 20 μL of enzyme mix (100 mM EPPS pH 8.6, 0.1 mM pyridoxal phosphate, 0.1 mg/mL BSA, 50 nM BIO3-BIO1 enzyme) for 10 minutes at 20° C. in a well of a 96-well half-area black plate, followed by the addition of 20 μL of substrate mix (final concentration of 100 mM EPPS pH 8.6, 0.1 mM pyridoxal phosphate, 0.1 mg/mL BSA, 100 μM spermidine, 20 μM KAPA, 100 mM NaCO3) and further incubation for 75 minutes at 20° C. The reaction was terminated by the addition of 50 μL of derivatisation mix (final concentration of 250 mM borate NaOH pH 9.4, 3.6 mM o-phthalaldehyde, 7 mM β-mercaptoethanol, 17% (v/v) ethanol, 3.6% (v/v) methanol). The fluorescent product produced by the reaction of DAPA with o-phthalaldehyde and 7 mM β-mercaptoethanol was measured at 470 nm after excitation at 410 nm.
(§7) For IC50 calculations, appropriate dose responses of compounds L, M, B, K and G were used. Calculated percentage inhibitions were then input into GraphPad Prism 7 and IC50s calculated using the non-linear regression (vs. normalised response) equation.

Experiment [7] addresses T2, Arabidopsis thaliana BioDA variant enzymes (Arabidopsis thaliana, UniProt B0F481, F348C).
T2 construct: with the predicted N-terminal mitochondrial transit peptide removed; 6xHis-tag (N); thrombin cleavage site (N); made in house; host or cells: E. coli BL21 (DE3) bioA
Description: biochemical. The procedure: as §5, §6, §7

Experiment [8] concerns the target T3, Arabidopsis thaliana BioDA variant enzymes (Arabidopsis thaliana, UniProt B0F481, P421L).
T3 construct: with the predicted N-terminal mitochondrial transit peptide removed; 6xHis-tag (N); thrombin cleavage site (N); made in house; host or cells: E. coli BL21 (DE3) bioA
Description: biochemical. Here is the method:
as §5, §6, §7

Experiment [9] has as its target T4, Arabidopsis thaliana BioDA variant enzymes (Arabidopsis thaliana, UniProt B0F481, W391L).
T4 construct: with the predicted N-terminal mitochondrial transit peptide removed; 6xHis-tag (N); thrombin cleavage site (N); made in house; host or cells: E. coli BL21 (DE3) bioA
As to the kind of experiment: biochemical. Here is the method: as §5, §6, §7

Experiment [10] deals with T5, Arabidopsis thaliana BioDA variant enzymes (Arabidopsis thaliana, UniProt B0F481, W392G).
T5 construct: with the predicted N-terminal mitochondrial transit peptide removed; 6xHis-tag (N); thrombin cleavage site (N); made in house; host or cells: E. coli BL21 (DE3) bioA
As to the kind of experiment: biochemical. Here is the method: as §5, §6, §7

Values joined by “and” are separate entries in the source; they are usually repeats but may differ in a detail not shown here. Equal entries are not always repeated.

T5 sequence (B0F481 24-833 W392G): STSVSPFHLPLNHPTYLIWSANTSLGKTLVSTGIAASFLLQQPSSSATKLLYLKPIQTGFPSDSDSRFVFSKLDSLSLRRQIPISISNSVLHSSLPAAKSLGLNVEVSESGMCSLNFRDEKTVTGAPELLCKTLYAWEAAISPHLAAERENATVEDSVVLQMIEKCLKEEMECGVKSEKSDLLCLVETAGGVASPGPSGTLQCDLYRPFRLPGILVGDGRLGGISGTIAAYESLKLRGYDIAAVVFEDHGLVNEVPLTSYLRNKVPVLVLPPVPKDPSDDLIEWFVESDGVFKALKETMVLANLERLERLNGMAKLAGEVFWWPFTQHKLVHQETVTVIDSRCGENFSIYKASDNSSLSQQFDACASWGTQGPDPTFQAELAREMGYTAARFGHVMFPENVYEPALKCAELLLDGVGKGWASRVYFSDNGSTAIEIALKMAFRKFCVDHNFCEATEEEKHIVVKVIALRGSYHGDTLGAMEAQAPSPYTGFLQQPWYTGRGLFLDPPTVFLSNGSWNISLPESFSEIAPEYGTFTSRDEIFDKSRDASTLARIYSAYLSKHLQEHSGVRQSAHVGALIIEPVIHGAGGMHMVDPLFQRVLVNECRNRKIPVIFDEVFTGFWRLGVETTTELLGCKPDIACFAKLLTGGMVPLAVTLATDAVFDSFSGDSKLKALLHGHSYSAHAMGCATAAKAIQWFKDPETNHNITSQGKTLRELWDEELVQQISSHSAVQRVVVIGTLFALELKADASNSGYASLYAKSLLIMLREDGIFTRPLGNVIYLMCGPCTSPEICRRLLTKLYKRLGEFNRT
T4 sequence (B0F481 24-833 W391L): as the sequence (B0F481 24-833 W392G) above, with W368L, G369W counted along it
T1 sequence (B0F481 24-833 C388T): as the sequence (B0F481 24-833 W392G) above, with C365T, G369W counted along it
T2 sequence (B0F481 24-833 F348C): as the sequence (B0F481 24-833 W392G) above, with F325C, G369W counted along it
T3 sequence (B0F481 24-833 P421L): as the sequence (B0F481 24-833 W392G) above, with G369W, P398L counted along it

For the molecule `CCOC(=O)c1nn(-c2ccc3c(c2)OC(F)(F)C(F)(F)O3)c2cccc(C(C)=O)c2c1=O` [Compound A, ethyl 5-acetyl-4-oxo-1-(2,2,3,3-tetrafluoro-1,4-benzodioxin-6-yl)cinnoline-3-carboxylate], the percentage of damage in experiment [1] is 5% and 0% and 2%; in [2], 0% and 3%.
As for `CCn1c(Cn2ccc(C(F)(F)F)n2)cc(=O)c(C(=O)O)c1-c1ccc(Cl)c(Cl)c1` [Compound L, 2-(3,4-dichlorophenyl)-1-ethyl-4-oxo-6-[[3-(trifluoromethyl)pyrazol-1-yl]methyl]pyridine-3-carboxylic acid], the percentage of damage in experiment [3] (7 DAT) was 55% and 40% and 45% and 50%; in experiment [3] (14 DAT), 80% (2×) and 85% and 75%; in [3] (21 DAT) it was 90% and 75% and 85%; in experiment [4] it was 10%; in experiment [5] (14 DAT), 70%; in [5] (21 DAT) it was 80%. The “growth of representative wild type tobacco plant after treatment (photograph, FIG. 6)” value in experiment [3] (compound L 600 gai/ha, 28 days post treatment, compared to Event 8307 (pBin TMV EcBioA) and Event 8402 (pBin TMV MTP EcBioA)) is given as “significantly stunted growth”. The IC50 in experiment [6] was 0.092 µM; in experiment [7], 77.6 µM; in [8] it was 0.687 µM; in [9] it was 16.3 µM; in experiment [10], 17.7 µM.
